Laboratory results: article PMC9000592 (Molecules, 2022)
Where two headings read alike, the source gives them in different places.

Columns and labels:
[1] = tested on: cytokine expression; parameters: method as in PMID 31286365; conditions: in vitro; cited from earlier work
[2] = molecular target: T1, CYP3A2 (Rattus norvegicus, UniProt P05183); experiment: Inhibition of CYP3A2-mediated dexamethasone 6β-hydroxylation in rat liver microsomes (HPLC); conditions: for inhibition mode of CYP3A2 enzyme activity: Lineweaver–Burk plot, rat liver microsomes; for Vmax for 6β-hydroxylase / Clint (hepatic intrinsic clearance) for 6β-hydroxylase: dexamethasone substrate
T1 sequence (P05183 1-504): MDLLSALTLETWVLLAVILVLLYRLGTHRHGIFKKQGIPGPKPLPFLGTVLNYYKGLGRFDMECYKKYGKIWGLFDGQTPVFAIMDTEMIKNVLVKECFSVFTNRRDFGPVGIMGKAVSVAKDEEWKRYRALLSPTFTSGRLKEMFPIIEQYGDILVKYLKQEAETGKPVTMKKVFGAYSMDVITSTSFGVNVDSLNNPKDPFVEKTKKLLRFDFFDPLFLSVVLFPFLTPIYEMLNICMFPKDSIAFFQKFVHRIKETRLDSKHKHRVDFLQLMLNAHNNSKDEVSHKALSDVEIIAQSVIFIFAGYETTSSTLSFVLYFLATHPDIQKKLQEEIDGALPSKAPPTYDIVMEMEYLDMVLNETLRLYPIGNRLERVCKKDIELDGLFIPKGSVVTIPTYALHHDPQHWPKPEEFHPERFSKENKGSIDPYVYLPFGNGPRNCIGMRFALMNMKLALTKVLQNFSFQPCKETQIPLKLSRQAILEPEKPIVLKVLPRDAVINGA
Procedure: The rates of 6β-hydroxydexamethasone formation were determined using High-Performance Liquid Chromatography (HPLC) technique.
The percentage of organic solvent in the assay was not more than 1% v/v.
The quenched reaction masses were transferred to the new vials and substrate and metabolite were double extracted with ethyl acetate (3 mL) and diethyl ether (3 mL), respectively. The organic extracts were evaporated to dryness. The mobile phase (70% acetonitrile and 30% water, v/v) was used to dissolve the residues. Then, 10 µL of the solution was injected for HPLC analysis.
Analysis of variance (ANOVA) test was also performed (at 0.05 significance level).
Schwarz criterion (SC) and Akaike information criterion (AIC) were acquired from nonlinear regression analysis. IC50 values were calculated by nonlinear regression analysis and GraphPad Prism software was used for this purpose.
The Lineweaver–Burk plot was used to assess the inhibition parameters such as Km, Vmax, and Clint.

[3] = tested on: trimethadione metabolism; conditions: short-term administration in rats; cited from earlier work
[4] = cited from earlier work
[5] = molecular target: fatty acid amide hydrolase; conditions: hydrolysis of arachidonoylethanolamide; cited from earlier work
[6] = molecular target: T1, CYP3A2; parameters: The pooled liver microsomes from male rats (Sprague Dawley) were purchased from Merck; tissue Merck; host or cells: pooled liver microsomes from male Sprague Dawley rats; conditions: previous study; cited from earlier work
[7] = tested on: bufuralol 1′-hydroxylation; parameters: method as in PMID 15258107; conditions: cited from earlier work
[8] = parameters: method as in PMID 29752643; conditions: several daily oral doses of omeprazole 40 mg; cited from earlier work
[9] = tested on: ATPase; parameters: method as in PMID 2992525; conditions: in vitro, up to 60 min at pH 6.1 or pH 7.4; cited from earlier work
[10] = tested on: CYP3A4; conditions: cited from earlier work
[11] = tested on: COVID-19; parameters: method as in PMID 33732750; conditions: cited from earlier work
[12] = male, Sprague Dawley, rat, microsomes, pH 7.4

Structure (SMILES) | inhibition mode of CYP3A2 enzyme activity [2] | Vmax for 6β-hydroxylase ([2]; inhibitor 50 µM) | Vmax for 6β-hydroxylase ([2]; inhibitor 100 µM) | IC50 [2] [µM] | Ki [2] [µM] | inhibition of CYP3A2 at concentrations lower than 30 µM [2] | Clint (hepatic intrinsic clearance) for 6β-hydroxylase ([2]; inhibitor 30 µM) | Vmax for 6β-hydroxylase ([2]; inhibitor 30 µM) | Clint (hepatic intrinsic clearance) for 6β-hydroxylase ([2]; inhibitor 50 µM) | Clint (hepatic intrinsic clearance) for 6β-hydroxylase ([2]; inhibitor 100 µM) | also measured
CC(C)Cc1ccc(C(C)C(=O)O)cc1 (stereo not drawn) [Ibuprofen, ibuprofen] | non-competitive | 0.0116 ± 0.608 × 10^−3 µM^−1∙min^−1 | 0.0099 ± 0.040 × 10^−3 µM^−1∙min^−1 | – | – | – | – | – | – | – | effect on cytokine expression [1]: no inhibitory effect; Vmax for 6β-hydroxylase ([2]; inhibitor 200 µM): 0.0092 ± 0.100 × 10^−3 µM^−1∙min^−1; inhibition at 40 min, 50 µM [2, 12]: 23 ± 4.34%; inhibition at 40 min, 100 µM [2, 12]: 34.73 ± 0.336%; inhibition at 40 min, 200 µM [2, 12]: 38.9 ± 0.476%; effect on trimethadione metabolism [3]: did not affect; amounts found in plasma [4]: 49 to 242 µM; Cmax ([4]; read-out: peak plasma concentrations (Cmax), after two single doses of 200 mg from two different ibuprofen preparations): 110 to 150 µM; IC50 [5]: 270 µM
CC(=O)Oc1ccccc1C(=O)O [aspirin] | – | – | – | – | – | – | – | – | – | – | inhibition of CYP3A2 isoenzyme activity [6]: weak competitive inhibition
COc1ccc2[nH]c([S+]([O-])Cc3ncc(C)c(OC)c3C)nc2c1 (stereo not drawn) [Omeprazole, omeprazole] | uncompetitive | 0.0062 ± 0.473 × 10^−3 µM^−1∙min^−1 | 0.0042 ± 0.058 × 10^−3 µM^−1∙min^−1 | 78.35 ± 0.46 | 39.18 ± 0.23 | No inhibition | 0.0009 ± 0.091 × 10^−3 µM^−2∙min^−1 | 0.0080 ± 0.346 × 10^−3 µM^−1∙min^−1 | 0.0010 ± 0.093 × 10^−3 µM^−2∙min^−1 | 0.0011 ± 0.066 × 10^−3 µM^−2∙min^−1 | IC50 [7]: > 200 µM; effect on the pharmacokinetics of roxadustat [8]: no substantial effect; therapeutic plasma concentration ([4]; no reference given): 1.1 to 2.0 µM; Cmax ([4]; several daily oral doses of 40 mg): 1207 ng/mL; inhibition of the ATPase activity [9]: no substantial inhibition
CCC(CC)COC(=O)[C@H](C)N[P@](=O)(OC[C@H]1O[C@@](C#N)(c2ccc3c(N)ncnn23)[C@H](O)[C@@H]1O)Oc1ccccc1 [Remdesivir, remdesivir] | mixed | 0.0146 ± 0.586 × 10^−3 µM^−1∙min^−1 | 0.0132 ± 0.153 × 10^−3 µM^−1∙min^−1 | 45.007 ± 0.016 | 22.504 ± 0.008 | No inhibition | 0.0006 ± 0.011 × 10^−3 µM^−2∙min^−1 | 0.0122 ± 0.306 × 10^−3 µM^−1∙min^−1 | 0.0006 ± 0.018 × 10^−3 µM^−2∙min^−1 | 0.0010 ± 0.025 × 10^−3 µM^−2∙min^−1 | inhibition of CYP3A4 [10]: weak inhibitor; plasma concentration range ([4]; after a single dose of 3–225 mg): 0.1 to 7.3 µM
C[C@@H]1C[C@H]2[C@@H]3CCC4=CC(=O)C=C[C@]4(C)[C@@]3(F)[C@@H](O)C[C@]2(C)[C@@]1(O)C(=O)CO [dexamethasone] | – | – | – | – | – | – | – | – | – | – | reduction of death rate ([11]; nonventilated patients with supplemental oxygen): 20%; reduction of death rate ([11]; ventilated intensive care unit (ICU) patients): 35%
